Where two headings read alike, the source gives them in different places.
Experiments:
[1] = system: R. solani; type: cell-based; conditions: for Colony diameter at 3 days (mm) / Viability: single compound; for Colony diameter at 3 days (mm): untreated control 70-72 mm; for lethal effect on R. solani: similar to that observed when R. solani is exposed to M. albus; for Percent Inibition of Colony growth at 3 days: 30 μl (0.92) of compound, or 30 μl each (0.92) in mixtures, per 65 mL head space
Procedure: In one set of experiments, a Petri plate divided by plastic walls into 3 equal spaces was used for the assay. A plug of R. solani was placed in one section of the Petri plate containing PDA. On another section of the plate, a lx2 cm piece of sterile filter paper was loaded with the test compound(s). All plates were wrapped with two layers of saran film and incubated at room temperature. The head space in each plate was 65 ml. Removing the agar plug and placing it onto a fresh PDA Petri plate determined the viability of R. Solani exposed to each test compound. Control experiments were also conducted along side without test compound(s).
The diameter of R. solani colonies on untreated control plates was 70-72 mm. The (+) symbol in the viability column of each table above indicates continued viability of the organism after exposure to and removal from the given compound or mixture, while the (−) symbol indicates death of the organism. Multiple (+) and (−) symbols in the same column indicate the results of multiple trials.
Synergism between the volatile organic components produced by M. albus was studied using the method of Limpel as described by Richer (Richer, D. L. 1987). The determination of synergy as described by Limpel can be represented by the following equation: […]
Where Ee is the expected additive effect of the two antifungal compounds, X is the observed percentage of inhibition of the test organism when antifungal agent A is applied alone at the rate used in the mixture, and Y is the observed percentage inhibition of the test organism when antifungal agent B is used alone at the rate used in the mixture.
Experimental studies were set up to determine if synergy exists between the components produced by M. albus. The biological activity of individual volatile organic compounds and mixtures of volatile organic compounds was tested according to the method described in Example 10 above. The observed inhibitory effects of the volatile organic compounds were then compared to the expected additive effects as calculated from the equation above.

[2] = system: selected group of 7 test fungi; assay: Artificial atmosphere test of esters and individual esters; type: cell-based
Procedure: In another set of experiments, test solutions were prepared by placing the volatile organic compounds isolatable from Muscodor albus cultures grown on potato dextrose agar (PDA) in vials in the relative proportions that they occurred in the gas phase of such cultures. The test mixture was placed in a presterilized microcup (4×6 mm) located in the center of a Petri plate containing PDA. When not in use, the mixture was stored at 0° C. The test organisms, freshly growing and excised on 3 mm^3 agar blocks (at least 3 agar blocks per test fungus), were placed 2-3 cm from the microcup and the plate wrapped with two layers of parafilm and grown for 2 or more days at 23° C. Measurements were made on mycelial growth from the edge of the agar blocks. However, in the case of bacteria and Candida albicans they were streaked on the test side of the PDA plate and checked for new visible growth and viability by restreaking from the original area of the agar plate that had been inoculated. Appropriate controls were also set up in which no test solution was placed into the microcup. Tests on 3.2-90 μl of the artificial mixture per 50 CC of air space above the PDA plate were done on 3 replicates in order to obtain IC50 data for each test organism. Viability of the test microbes was made by aseptically removing the small agar block and placing it on a PDA plate and observing growth after 1-3 days.
To determine the relative biological activity of each class of compounds, individual classes were also tested in the relative amounts in which they occur at the optimum concentration of the entire mixture, which is 60 μl of test mixture per 50 CC of air space above the culture in a standard Petri plate. For instance, the esters represent 44% of the mixture of the identified volatiles and were tested at 26.4 μl/50 CC (0.53 μl/CC) air space and the same procedure was used for each of the other classes of compounds that were identified. This was done with a selected group of 7 test fungi.
Each compound in the class of esters was individually evaluated. […]

[3] = amount 0.92 (60 μl/65 mL head space)

CCC(C)CO (centres unmarked) [2-Methyl-1-butanol]
Colony diameter at 3 days (mm) [1, 3]: no growth

CC(C)CCO [3-methyl-1-butanol]
lethal effect on R. solani [1]: lethal effect | Colony diameter at 3 days (mm) ([1]; amount 0.46 (30 μl/65 mL head space)): fuzz | Viability [1, 3]: no | Colony diameter at 3 days (mm) [1, 3]: no growth

CC(=O)OCCC(C)C [3-methylbutyl acetate, 1-butanol, 3-methyl, acetate]
death of test fungus ([2]; standard 3 day exposure period): under no conditions in any test, was death of any test fungus observed | inhibitory bioactivity of the individual ester ([2]; tested at the level of 0.32 μl/CC (62% of all identified combined esters)): almost completely mimicked the results of all esters

CCCC(=O)OCC [Ethyl butyrate]
Percent Inibition of Colony growth at 3 days [1]: 86% | Colony diameter at 3 days (mm) [1, 3]: no growth

CCOC(=O)CC [Ethyl propionate]
Percent Inibition of Colony growth at 3 days [1]: 76%

CC(C)C(=O)O [Isobutyric acid]
lethal effect on R. solani [1]: lethal effect | Viability [1, 3]: no | Colony diameter at 3 days (mm) [1, 3]: no growth

CC(C)CCOC(=O)C(C)C [propionic acid, 2-methyl, 3-methylbutyl ester]
inhibitory bioactivity of the individual ester ([2]; each ester individually evaluated, comparable test): minimal inhibitory bioactivity

— patent publication US20040141955A1, “Compositions related to a novel endophytic fungi and methods of use” (priority 2001, published 2004)
